ChEMBL document CHEMBL6134893, “The Exploration of Indole-Based LSD1-Targeted Inhibitors for Enhanced Immune Response in Gastric Cancer via the PD-L1/PD-1 Axis” (J Med Chem, 2025)

What was measured:
[1] = molecular target: T1, Lysine-specific histone demethylase 1A (Homo sapiens, UniProt O60341); assay: Inhibition of recombinant LSD1 (unknown origin) extracted from Escherichia coli BL21 (DE3) using H3K4me2 peptide as substrate in presence of […] by Amplex Red assay
[2] = molecular target: Lysine-specific histone demethylase 1A (Mus musculus) (UniProt Q6ZQ88); assay: Inhibition of LSD1 in mouse MFC cells assessed as accumulation of membrane PD-L1 at 2 uM incubated for 5 days; assay type: cell-based; set-up: scale not given: the % may be the effect or the level left; details: time 5.0 day
[3] = molecular target: T1, Lysine-specific histone demethylase 1A; assay: Inhibition of LSD1 in human MKN-45 cells assessed as accumulation of membrane PD-L1 at 2 uM incubated for 5 days; assay type: cell-based; set-up: scale not given: the % may be the effect or the level left; details: time 5.0 day

SMILES	IC50 [1]	also measured
C=C1C(=O)OCC1C(O)c1cn(S(=O)(=O)c2ccc(CN3CCN(C(=O)OC(C)(C)C)CC3)cc2)c2ccc(Cl)cc12 (configuration not stated)	1180 nM	–
C=C1C(=O)OCC1C(O)c1cn(S(=O)(=O)c2cccc(C(F)(F)F)c2)c2ccc(Cl)cc12 (configuration not stated)	213 nM	–
C=C1C(=O)OCC1C(O)c1cn(S(=O)(=O)c2ccc([N+](=O)[O-])cc2)c2ccc(Cl)cc12 (configuration not stated)	1380 nM	–
C=C1C(=O)OCC1C(O)c1cn(S(=O)(=O)c2ccc(C(F)(F)F)cc2)c2ccc(Cl)cc12 (configuration not stated)	1460 nM	–
C=C1C(=O)OCC1C(O)c1cn(S(=O)(=O)c2ccc(Cl)c(N)c2)c2ccc(Cl)cc12 (configuration not stated)	> 5000 nM	–
C=C1C(=O)OCC1C(O)c1cn(S(=O)(=O)c2ccc(N3CCCC3)c([N+](=O)[O-])c2)c2ccc(Cl)cc12 (configuration not stated)	2480 nM	–
C=C1C(=O)OCC1C(O)c1cn(S(=O)(=O)c2ccc(N3CCN(C)CC3)c([N+](=O)[O-])c2)c2ccc(Cl)cc12 (configuration not stated)	463 nM	–
N[C@H]1CC[C@H](N[C@@H]2C[C@H]2c2ccccc2)CC1	–	Activity [2]: 40.4%; Activity [3]: 48.5%
C=C1C(=O)OCC1C(O)c1cn(S(=O)(=O)CCC)c2ccc(Cl)cc12 (configuration not stated)	6650 nM	–
C=C1C(=O)OCC1C(O)c1cn(S(=O)(=O)c2ccc(CBr)cc2)c2ccc(Cl)cc12 (configuration not stated)	933 nM	–
C=C1C(=O)OCC1C(O)c1ccn(S(=O)(=O)c2ccc(Br)cc2)c1 (configuration not stated)	> 10000 nM	–
C=C1C(=O)OCC1C(O)c1cn(S(=O)(=O)c2ccc(N3CCCN(C(=O)OC(C)(C)C)CC3)c([N+](=O)[O-])c2)c2ccc(Cl)cc12 (configuration not stated)	4960 nM	–
C=C1C(=O)OCC1C(O)c1cn(S(=O)(=O)c2ccc(Cl)cc2Cl)c2ccc(Cl)cc12 (configuration not stated)	363 nM	–
O=S(=O)(c1ccc(Cl)cc1)n1cc(CNCC2CC2)c2cc(Cl)ccc21	> 10000 nM	–
C=C1C(=O)OCC1C(O)c1cn(S(=O)(=O)c2ccc(N(CCC)CCC)c([N+](=O)[O-])c2)c2ccc(Cl)cc12 (configuration not stated)	3390 nM	–
C=C1C(=O)OCC1C(O)c1cn(S(=O)(=O)c2ccc(F)cc2)c2ccc(Cl)cc12 (configuration not stated)	1340 nM	–
C=C1C(=O)OCC1C(O)c1cn(S(=O)(=O)c2ccc(CN3CCOCC3)cc2)c2ccc(Cl)cc12 (configuration not stated)	606 nM	–
O=S(=O)(c1ccc(Cl)cc1)n1cc(CNC2CC2)c2cc(Cl)ccc21	> 10000 nM	–
C=C1C(=O)OCC1C(O)c1cn(S(=O)(=O)c2ccc(Br)cc2)c2ccc(Cl)cc12 (configuration not stated)	1150 nM	–
C=C1C(=O)OCC1C(O)c1cn(S(=O)(=O)c2ccc(NC)c([N+](=O)[O-])c2)c2ccc(Cl)cc12 (configuration not stated)	89 nM	–
C=C1C(=O)OCC1C(O)c1cn(S(=O)(=O)c2ccc(N3CCN(CCO)CC3)c([N+](=O)[O-])c2)c2ccc(Cl)cc12 (configuration not stated)	284 nM	–
C=C1C(=O)OCC1C(O)c1cn(S(=O)(=O)c2ccccc2C)c2ccc(Cl)cc12 (configuration not stated)	261 nM	–
C=C1C(=O)OCC1C(O)c1cn(S(=O)(=O)c2ccccc2Br)c2ccc(Cl)cc12 (configuration not stated)	161 nM	–
C=C1C(=O)OCC1C(O)c1cn(S(=O)(=O)c2ccc(N3CCCCC3)c([N+](=O)[O-])c2)c2ccc(Cl)cc12 (configuration not stated)	2130 nM	–
C=C1C(=O)OCC1C(O)c1cn(S(C)(=O)=O)c2ccc(Cl)cc12 (configuration not stated)	9130 nM	–
C=C1C(=O)OCC1C(O)c1cn(S(=O)(=O)c2ccccc2[N+](=O)[O-])c2ccc(Cl)cc12 (configuration not stated)	755 nM	–

SMILES	IC50 [1]	also measured
C=C1C(=O)OCC1C(O)c1cn(S(=O)(=O)c2ccccc2Cl)c2ccc(Cl)cc12 (configuration not stated)	366 nM	–
C=C1C(=O)OCC1C(O)c1cn(S(=O)(=O)c2ccc(Cl)c([N+](=O)[O-])c2)c2ccc(Cl)cc12 (configuration not stated)	99 nM	–
C=C1C(=O)OCC1C(O)c1ccn(S(=O)(=O)c2ccc(Cl)cc2)c1 (configuration not stated)	> 10000 nM	–
C=C1C(=O)OCC1C(O)c1cn(S(=O)(=O)c2cccc(Cl)c2)c2ccc(Cl)cc12 (configuration not stated)	746 nM	–
C=C1C(=O)OCC1C(=O)c1cn(S(=O)(=O)c2ccc(Cl)cc2)c2ccc(Cl)cc12 (configuration not stated)	> 10000 nM	–
C=C1C(=O)OCC1C(O)c1cn(S(=O)(=O)c2cccc([N+](=O)[O-])c2)c2ccc(Cl)cc12 (configuration not stated)	107 nM	–
C=C1C(=O)OCC1C(O)c1cn(S(=O)(=O)c2ccc(N3CCC(NC(=O)OC(C)(C)C)C3)c([N+](=O)[O-])c2)c2ccc(Cl)cc12 (configuration not stated)	440 nM	–
C=C1C(=O)OCC1C(O)c1cn(S(=O)(=O)c2ccc(F)c(C(F)(F)F)c2)c2ccc(Cl)cc12 (configuration not stated)	654 nM	–
C=C1C(=O)OC/C1=C\c1cn(S(=O)(=O)c2ccc(Cl)cc2)c2ccc(Cl)cc12	> 10000 nM	–
C=C1C(=O)OCC1C(O)c1cn(S(=O)(=O)c2ccc(N3CCN(C(=O)OC(C)(C)C)CC3)c([N+](=O)[O-])c2)c2ccc(Cl)cc12 (configuration not stated)	459 nM	–
C=C1C(=O)OCC1C(O)c1cn(S(=O)(=O)c2ccc(Cl)cc2)c2ccc(Cl)cc12 (configuration not stated)	929 nM	–
C=C1C(=O)OCC1C(O)c1cn(S(=O)(=O)c2ccc(NCCC)c([N+](=O)[O-])c2)c2ccc(Cl)cc12 (configuration not stated)	664 nM	–
C=C1C(=O)OCC1C(O)c1cn(S(=O)(=O)c2ccc(N3CCN(CC)CC3)c([N+](=O)[O-])c2)c2ccc(Cl)cc12 (configuration not stated)	287 nM	–
C=C1C(=O)OCC1C(O)c1cn(S(=O)(=O)c2ccccc2F)c2ccc(Cl)cc12 (configuration not stated)	219 nM	–
C=C1C(=O)OCC1C(O)c1ccn(S(=O)(=O)c2ccc(C)cc2)c1 (configuration not stated)	> 10000 nM	–
C=C1C(=O)OCC1C(O)c1cn(S(=O)(=O)c2ccc(NCC(C)C)c([N+](=O)[O-])c2)c2ccc(Cl)cc12 (configuration not stated)	131 nM	–
C=C1C(=O)OCC1C(O)c1cn(S(=O)(=O)c2ccc(N3CCCC(NC(=O)OC(C)(C)C)C3)c([N+](=O)[O-])c2)c2ccc(Cl)cc12 (configuration not stated)	714 nM	–
C=C1C(=O)OCC1C(O)c1cn(S(=O)(=O)c2ccc(OC)cc2)c2ccc(Cl)cc12 (configuration not stated)	855 nM	–
C=C1C(=O)OCC1C(O)c1cn(S(=O)(=O)c2ccc(N3C[C@@H]4C[C@H]3CN4C(=O)OC(C)(C)C)c([N+](=O)[O-])c2)c2ccc(Cl)cc12 (some centres not stated)	3350 nM	–
C=C1C(=O)OCC1C(O)c1cn(S(=O)(=O)C2CC2)c2ccc(Cl)cc12 (configuration not stated)	5680 nM	–
C=C1C(=O)OCC1C(O)c1cn(S(=O)(=O)c2ccc(CNCc3ccc(Cl)cc3)cc2)c2ccc(Cl)cc12 (configuration not stated)	2340 nM	–
C=C1C(=O)OCC1C(O)c1cn(S(=O)(=O)c2ccc(OC(F)(F)F)cc2)c2ccc(Cl)cc12 (configuration not stated)	1420 nM	–
C=C1C(=O)OCC1C(O)c1cn(S(=O)(=O)c2c(Cl)cccc2Cl)c2ccc(Cl)cc12 (configuration not stated)	968 nM	–
C=C1C(=O)OCC1C(O)c1cn(S(=O)(=O)c2ccc(Cl)c(Cl)c2)c2ccc(Cl)cc12 (configuration not stated)	579 nM	–
C=C1C(=O)OCC1C(O)c1cn(S(=O)(=O)c2ccccc2)c2ccc(Cl)cc12 (configuration not stated)	1110 nM	–
